Test system: HER2
Experiment: HER2 degradation assay with BT-474 cell line (Example 12, FACS)
Format: cell-based
Details: Homo sapiens, BT-474; SDC-TRAPs of the 41st table
Description: HER2 Degradation Assay with BT-474 Cell Line
HER2 has emerged as a key target for anticancer drugs due to its intrinsic involvement in the phosphatidylinositol-3-kinase-Akt/protein kinase B (PI3K-Akt) and the mitogen-activated protein kinase (MAPK) pathways, both of which suppress apoptosis and promote tumor cell survival, gene transcription, angiogenesis, cellular proliferation, migration, mitosis, and differentiation. The degradation of HER2 is a measure of efficacy of anticancer therapeutics that target Hsp90. Accordingly, the SDC-TRAP molecules of the invention that comprise a binding moiety that binds Hsp90 were tested in the following HER2 degradation assay.
BT-474 cells (human breast cancer cell line ATCC HTB-20) were obtained from ATCC and seeded into 12-well tissue culture plates at 0.2×10^6/1.8 mL/well. […] Each test compound was titrated in 4-fold dilutions from 5 μM to 78 nM with DMSO and 200 μL of the titration was added to each well of the cell plate. The DMSO final concentration was 0.2%. Cells were incubated overnight at 37° C. in 5% CO2.
Media was decanted from the plate, cells were washed 1× in PBS. 400 μL trypsin (EDTA) per well was added, and the cells were incubated for 2 to 3 minutes. Cells were collected into FACS tubes containing 1 ml culture medium to neutralize the trypsin and were centrifuged for 5 minutes at 1200 rpm. Supernatant was decanted and the cells were resuspended in 5 μL FITC (anti HER2/nu)/200 μL staining buffer (1×PBS+1% FBS+0.05% Sodium Azide)/tube. Controls were […] IgG isotype control and staining buffer only. Tubes were incubated for 30 minutes in the dark at room temperature. 1 mL staining buffer was added to each tube and the tubes were centrifuged for 6 minutes at 1200 rpm. The supernatant was decanted and 300 μL staining buffer was added to each tube, which was store at 4° C. for FACS (cytometer) analysis. The cytometer readout was normalized and the potency of each compound is evaluated with IC50 calculated with XLfit™ software.

Work on CC(C)c1cc(-c2nnc(O)n2-c2ccc3c(ccn3CCC3CCN(C(=O)c4ccc(CCc5c[nH]c6nc(N)[nH]c(=O)c56)cc4)CC3)c2)c(O)cc1O [SDC-TRAP-0130, 2-amino-5-(4-(4-(2-(5-(3-(2,4-dihydroxy-5-isopropylphenyl)-5-hydroxy-4H-1,2,4-triazol-4-yl)-1H-indol-1-yl)ethyl)piperidine-1-carbonyl)phenethyl)-3H-pyrrolo[2,3-d]pyrimidin-4(7H)-one] yielded an IC50 of 1.83 µM.

Same assay, conditions: Homo sapiens; BT-474 cells

First: CCNC(=O)c1nnc(-c2cc(C(C)C)c(O)cc2O)n1-c1ccc(CN2CCC(C(=O)N3CCC(OC(=O)Nc4cccc5c4CN(C4CCC(=O)NC4=O)C5=O)CC3)CC2)cc1 (stereo not drawn) [SDC-TRAP-0123, 1-(1-(4-(3-(2,4-Dihydroxy-5-isopropylphenyl)-5-(ethylcarbamoyl)-4H-1,2,4-triazol-4-yl)benzyl)piperidine-4-carbonyl)piperidin-4-yl (2-(2,6-dioxopiperidin-3-yl)-1-oxoisoindolin-4-yl)carbamate]
Second: CCNC(=O)c1nnc(-c2cc(C(C)C)c(O)cc2O)n1-c1ccc(CN2CCC(C(=O)N3CCC(COC(=O)Nc4cccc5c4CN(C4CCC(=O)NC4=O)C5=O)CC3)CC2)cc1 (stereo not drawn) [SDC-TRAP-0124, (1-(1-(4-(3-(2,4-Dihydroxy-5-isopropylphenyl)-5-(ethylcarbamoyl)-4H-1,2,4-triazol-4-yl)benzyl)piperidine-4-carbonyl)piperidin-4-yl)methyl (2-(2,6-dioxopiperidin-3-yl)-1-oxoisoindolin-4-yl)carbamate]
The IC50 of the first is 1.8-fold higher: 0.657 µM for the first, 0.358 µM for the second. The second is the more potent here.

Going from CCNC(=O)c1nnc(-c2cc(C(C)C)c(O)cc2O)n1-c1ccc(Oc2ccc(C(=O)N3CCC(COC(=O)Nc4cccc5c4CN(C4CCC(=O)NC4=O)C5=O)CC3)cc2)cc1 (stereo not drawn) [SDC-TRAP-0125, (1-(4-(4-(3-(2,4-Dihydroxy-5-isopropylphenyl)-5-(ethylcarbamoyl)-4H-1,2,4-triazol-4-yl)phenoxy)benzoyl)piperidin-4-yl)methyl (2-(2,6-dioxopiperidin-3-yl)-1-oxoisoindolin-4-yl)carbamate] to CCNC(=O)c1nnc(-c2cc(C(C)C)c(O)cc2O)n1-c1ccc(C(=O)N2CCC(COC(=O)Nc3cccc4c3CN(C3CCC(=O)NC3=O)C4=O)CC2)cc1 (stereo not drawn) [SDC-TRAP-0136, (1-(4-(3-(2,4-dihydroxy-5-isopropylphenyl)-5-(ethylcarbamoyl)-4H-1,2,4-triazol-4-yl)benzoyl)piperidin-4-yl)methyl (2-(2,6-dioxopiperidin-3-yl)-1-oxoisoindolin-4-yl)carbamate], the IC50 rises from 0.312 µM to greater than 5 µM.

CC(C)c1cc(-c2nnc(O)n2-c2ccc(N3CCN(CCCC(=O)Nc4cccc5c4CN(C4CCC(=O)NC4=O)C5=O)CC3)cc2)c(O)cc1O (stereo not drawn) [SDC-TRAP-0126, 4-(4-(4-(3-(2,4-dihydroxy-5-isopropylphenyl)-5-hydroxy-4H-1,2,4-triazol-4-yl)phenyl)piperazin-1-yl)-N-(2-(2,6-dioxopiperidin-3-yl)-1-oxoisoindolin-4-yl) butanamide] and CC(C)c1cc(-c2nnc(O)n2-c2ccc(CN3CCN(CC(=O)Nc4cccc5c4CN(C4CCC(=O)NC4=O)C5=O)CC3)cc2)c(O)cc1O (stereo not drawn) [SDC-TRAP-0128, 2-(4-(4-(3-(2,4-dihydroxy-5-isopropylphenyl)-5-hydroxy-4H-1,2,4-triazol-4-yl)benzyl)piperazin-1-yl)-N-(2-(2,6-dioxopiperidin-3-yl)-1-oxoisoindolin-4-yl)acetamide] are within 1.5-fold of each other in IC50: 8.64 µM for the first, 6.91 µM for the second.

CC(C)c1cc(-c2nnc(O)n2-c2ccc(CC(=O)N(C)CCOC(=O)Nc3cccc4c3CN(C3CCC(=O)NC3=O)C4=O)cc2)c(O)cc1O (stereo not drawn) [SDC-TRAP-0127, 2-(2-(4-(3-(2,4-di hydroxy-5-isopropylphenyl)-5-hydroxy-4H-1,2,4-triazol-4-yl)phenyl)-N-methylacetamido)ethyl(2-(2,6-dioxopiperidin-3-yl)-1-oxoisoindolin-4-yl)carbamate] and CC(C)c1cc(-c2nnc(O)n2-c2ccc(CC(=O)N(C)CCCOC(=O)Nc3cccc4c3CN(C3CCC(=O)NC3=O)C4=O)cc2)c(O)cc1O (stereo not drawn) [SDC-TRAP-0132, 3-(2-(4-(3-(2,4-dihydroxy-5-isopropylphenyl)-5-hydroxy-4H-1,2,4-triazol-4-yl)phenyl)-N-methylacetamido)propyl(2-(2,6-dioxopiperidin-3-yl)-1-oxoisoindolin-4-yl)carbamate] cannot be ordered by IC50: 8.09 µM for the first, greater than 5 µM for the second.

First: CC(C)c1cc(-c2nnc(O)n2-c2ccc3c(ccn3CCC3CCN(CC(=O)Nc4cccc5c4CN(C4CCC(=O)NC4=O)C5=O)CC3)c2)c(O)cc1O (stereo not drawn) [SDC-TRAP-0129, 2-(4-(2-(5-(3-(2,4-dihydroxy-5-isopropylphenyl)-5-hydroxy-4H-1,2,4-triazol-4-yl)-1H-indol-1-yl)ethyl)piperidin-1-yl)-N-(2-(2,6-dioxopiperidin-3-yl)-1-oxoisoindolin-4-yl)acetamide]
Second: CC(C)c1cc(-c2nnc(O)n2-c2ccc(CC3CCN(C(=O)COC(=O)Nc4cccc5c4CN(C4CCC(=O)NC4=O)C5=O)CC3)cc2)c(O)cc1O (stereo not drawn) [SDC-TRAP-0131, 2-(4-(4-(3-(2,4-dihydroxy-5-isopropylphenyl)-5-hydroxy-4H-1,2,4-triazol-4-yl)benzyl)piperidin-1-yl)-2-oxoethyl(2-(2,6-dioxopiperidin-3-yl)-1-oxoisoindolin-4-yl)carbamate]
The IC50 of the first is lower: 4.52 µM for the first, greater than 5 µM for the second. The first is the more potent here.

Going from CCNC(=O)c1nnc(-c2cc(C(C)C)c(O)cc2O)n1-c1ccc(C(=O)N(C)CCOC(=O)Nc2cccc3c2CN(C2CCC(=O)NC2=O)C3=O)cc1 (stereo not drawn) [SDC-TRAP-0133, 2-(4-(3-(2,4-dihydroxy-5-isopropylphenyl)-5-(ethylcarbamoyl)-4H-1,2,4-triazol-4-yl)-N-methylbenzamido)ethyl(2-(2,6-dioxopiperidin-3-yl)-1-oxoisoindolin-4-yl)carbamate] to CCNC(=O)c1nnc(-c2cc(C(C)C)c(O)cc2O)n1-c1ccc(C(=O)N(C)CCCOC(=O)Nc2cccc3c2CN(C2CCC(=O)NC2=O)C3=O)cc1 (stereo not drawn) [SDC-TRAP-0135, 3-(4-(3-(2,4-dihydroxy-5-isopropylphenyl)-5-(ethylcarbamoyl)-4H-1,2,4-triazol-4-yl)-N-methylbenzamido)propyl(2-(2,6-dioxopiperidin-3-yl)-1-oxoisoindolin-4-yl)carbamate], the IC50 falls from greater than 10 µM to 9.67 µM. The second is the more potent here.

Compared with CCNC(=O)c1nnc(-c2cc(C(C)C)c(O)cc2O)n1-c1ccc(CN2CCC(C(=O)N3CCC(n4cc(-c5cnc(N)c(O[C@H](C)c6c(Cl)ccc(F)c6Cl)c5)cn4)CC3)CC2)cc1 [SDC-TRAP-0134, (R)-4-(4-((4-(4-(4-(6-amino-5-(1-(2,6-dichloro-3-fluorophenyl)ethoxy)pyridin-3-yl)-1H-pyrazol-1-yl)piperidine-1-carbonyl)piperidin-1-yl)methyl)phenyl)-5-(2,4-dihydroxy-5-isopropylphenyl)-N-ethyl-4H-1,2,4-triazole-3-carboxamide], CCNC(=O)c1nnc(-c2cc(C(C)C)c(O)cc2O)n1-c1ccc(C(=O)N(C)CC(=O)N2CCC(n3cc(-c4cnc(N)c(O[C@H](C)c5c(Cl)ccc(F)c5Cl)c4)cn3)CC2)cc1 [SDC-TRAP-0139, (R)-4-(4-((2-(4-(4-(6-amino-5-(1-(2,6-dichloro-3-fluorophenyl)ethoxy)pyridin-3-yl)-1H-pyrazol-1-yl)piperidin-1-yl)-2-oxoethyl)(methyl)carbamoyl)phenyl)-5-(2,4-dihydroxy-5-isopropylphenyl)-N-ethyl-4H-1,2,4-triazole-3-carboxamide] is higher in IC50: 0.077 µM for the first, 1 to 2 µM for the second.

CC(C)c1cc(-c2nnc(O)n2-c2ccc3c(ccn3CCC3CCN(C(=O)Cn4cc(F)c(=O)[nH]c4=O)CC3)c2)c(O)cc1O [SDC-TRAP-0137, 1-(2-(4-(2-(5-(3-(2,4-dihydroxy-5-isopropylphenyl)-5-hydroxy-4H-1,2,4-triazol-4-yl)-1H-indol-1-yl)ethyl)piperidin-1-yl)-2-oxoethyl)-5-fluoropyrimidine-2,4(1H,3H)-dione] and CCNC(=O)c1nnc(-c2cc(C(C)C)c(O)cc2O)n1-c1ccc(C(=O)N2CCC(CCOC(=O)Nc3cccc4c3CN(C3CCC(=O)NC3=O)C4=O)CC2)cc1 (stereo not drawn) [SDC-TRAP-0140, 2-(1-(4-(3-(2,4-dihydroxy-5-isopropylphenyl)-5-(ethylcarbamoyl)-4H-1,2,4-triazol-4-yl)benzoyl)piperidin-4-yl)ethyl(2-(2,6-dioxopiperidin-3-yl)-1-oxoisoindolin-4-yl)carbamate] cannot be ordered by IC50: greater than 5 µM for the first, greater than 5 µM for the second.

For CC(C)c1cc(-c2nnc(O)n2-c2ccc(N3CCN(C(=O)N4CCC(n5cc(-c6cnc(N)c(O[C@H](C)c7c(Cl)ccc(F)c7Cl)c6)cn5)CC4)CC3)cc2)c(O)cc1O [SDC-TRAP-0138, (R)-(4-(4-(6-amino-5-(1-(2,6-dichloro-3-fluorophenyl)ethoxy)pyridin-3-yl)-1H-pyrazol-1-yl)piperidin-1-yl)(4-(4-(3-(2,4-dihydroxy-5-isopropylphenyl)-5-hydroxy-4H-1,2,4-triazol-4-yl)phenyl)piperazin-1-yl)methanone], the IC50 was 0.707 µM.

Source: US9956293B2, “Targeted therapeutics” (Madrigal Pharmaceuticals, Inc., priority 2014, dated 2018)
